Tests used:
[1] = target: T1, arachidonate-5-lipoxygenase (Rattus norvegicus, UniProt P12527); experiment: Inhibition of 5-lipoxygenase in prepared macrophages from Wistar rats; format: cell-based; settings: quadruple determinations, mean IC50, read-out: IC50 (50% inhibition of 5-lipoxygenase)
T1 construct: using prepared macrophages from Wistar rats; endogenous in cells; host or cells: prepared macrophages from Wistar rats
T1 sequence (P12527 1-673): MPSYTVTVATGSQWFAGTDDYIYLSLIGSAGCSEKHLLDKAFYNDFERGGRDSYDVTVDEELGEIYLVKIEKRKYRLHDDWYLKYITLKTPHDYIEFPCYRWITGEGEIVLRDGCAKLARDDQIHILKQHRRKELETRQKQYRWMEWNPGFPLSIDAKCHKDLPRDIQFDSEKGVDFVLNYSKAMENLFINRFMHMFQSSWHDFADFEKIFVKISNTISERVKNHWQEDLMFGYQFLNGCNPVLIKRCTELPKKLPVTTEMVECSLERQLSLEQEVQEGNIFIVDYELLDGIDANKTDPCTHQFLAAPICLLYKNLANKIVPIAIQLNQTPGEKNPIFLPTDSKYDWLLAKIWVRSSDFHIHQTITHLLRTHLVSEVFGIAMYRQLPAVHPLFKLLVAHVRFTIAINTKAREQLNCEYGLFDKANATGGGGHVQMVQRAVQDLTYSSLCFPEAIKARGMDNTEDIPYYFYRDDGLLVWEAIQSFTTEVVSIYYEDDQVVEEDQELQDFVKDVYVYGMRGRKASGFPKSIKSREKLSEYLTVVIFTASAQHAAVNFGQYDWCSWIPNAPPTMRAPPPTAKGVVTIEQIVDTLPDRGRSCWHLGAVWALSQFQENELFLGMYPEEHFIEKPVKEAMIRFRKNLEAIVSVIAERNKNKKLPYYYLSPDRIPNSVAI
Description: Murphy, R. C. and Matthews, W. R., Purification and Characterization of Leukotrienes from Mastocytoma Cells, Methods in Enzymology, 86, pp. 409-416.
Argentiere, D. D., Ritchie, D. M. et al., Tepoxalin: A Dual Cyclooxygenase/5-Lipoxygenase Inhibitor of Arachidonic Acid Metabolism with Potent Anti-inflammatory Activity and a Favorable Gastrointestinal Profile, The Journal of Pharmacology and Experimental Therapeutics, Vol. 271, No. 3, 1399-1408, 1994.
Carter, G. W., Young, P. R. et al., 5-Lipoxygenase Inhibitory activity of Zileuton, The Journal of Pharmacology and Experimental Therapeutics, Vol. 256, No. 3, 1991.
The experiments were all conducted as quadruple determinations, by combining four partial experiments in each case were combined to determine the mean IC50 value.

[2] = system: tracheal segments from actively sensitized guinea-pigs; experiment: Inhibition of the antigen (ovalbumin)-induced contraction of isolated tracheal segments from actively sensitized guinea-pigs; design: species or system guinea-pig; settings: Cavia porcellus, under mepyramine and indomethacin protection, read-out: maximum inhibition (ovalbumin-induced contraction)
Procedure: For this purpose, isolated tracheal segments from guinea-pigs actively sensitized against ovalbumin by the s.c. administration of 10 μg of ovalbumin with 1 mg of aluminum hydroxide adjuvant, three weeks before removal of the organ, and a booster dose of the same amount of ovalbumin and aluminum hydroxide s.c. one week before removal of the organ. The segments were placed in organ baths filled with a nutrient solution aerated with carbogen which is a mixture of 95% oxygen and 5% carbon dioxide, and kept at 37° C., and were connected to isometric force transducers. After preincubation with mepyramine to eliminate histamine, and indomethacin for the inhibition of cyclooxygenase, 5×10^-7 mol/l carbachol (carbamylcholine chloride) was added and a contraction was induced. 10 μg/ml ovalbumin as an allergen was then added to the bath liquid and the maximum contraction of the tracheal segments which was thereby induced was correlated with the effect of the carbachol as control (=100%). The test substances were added to the organ bath 30 minutes before the allergen-induced contraction. Table 2 below indicates the IC50 values, i.e. the concentrations which cause a 50% inhibition of the contraction of isolated tracheal segments from the guinea-pig. The IC50 values were determined by testing 3-4 concentrations on 4-8 organs in each case.

[3] = system: late phase eosinophilia; experiment: Inhibition of late phase eosinophilia 24 hours after the inhalational ovalbumin challenge on actively sensitized guinea-pigs; format: in vivo; settings: -2 h; for EOS, B (eosinophils in the group treated with the substance, with challenge): x ± s
Description: Eosinophilic granulocytes play an important part in the transition of allergic diseases, e.g. bronchial asthma, to the chronic stage. Thus the bronchoalveolar lavage fluid (BAL) contains an increased number of eosinophils a few hours after an allergen-induced asthmatic attack. Eosinophils are expected to play an important part in cell damage since they contain histotoxic proteins, like major basic protein (MBP) and eosinophil cation protein (ECP), in their granula. It is also assumed that substances which prevent the infiltration of eosinophils have a therapeutic action against allergic diseases like bronchial asthma.
The inhibition of eosinophil infiltration by the substances was tested in vivo on guinea-pigs actively sensitized against ovalbumin by the substantenous administration of 10 μg of OA, with 1 μg of aluminum hydroxide adjuvant, three weeks before the beginning of the experiment, and a booster dose containing the same amount of OA and aluminum hydroxide was administrated substantaneously one week before the beginning of the experiment. Three weeks after the first sensitization, the animals were placed in a plastic box and exposed to an aerosol of 0.5% OA dissolved in a physiological saline solution. The nebulization time was 20-30 seconds. After 24 hours the animals were intraperitoneally anaesthetized with 1.5 g/kg body weight ethylurethane and a bronchioalveolar lavage was performed with 2×5 ml of physiological saline solution. The lavage fluid was collected and centrifuged at 400 G for 10 minutes and the cell pellet was then resuspended in 1 ml of physiological saline solution. The eosinophils were microscopically counted in a Neubauer chamber after staining using the No. 5877 Becton-Dickinson test kit for eosinophilia. The number of eosinophils was indicated in millions per animal. Each test was also carried out with two control groups with and without antigen challenge.
The percentage inhibition of the eosinophilia in the experimental groups treated with the substance is calculated by the following formula:
(A-C)-(B-C)/(A-C)×100=% inhibition
The test substances were administered orally or intraperitoneally as a triturate in 0.5% 5-hydroxyethylcellulose two hours before the antigen challenge.

[4] = system: SRS-A bronchoconstriction in guinea-pigs sensitized with ovalbumin; experiment: SRS-A bronchoconstriction in anaesthetized, ovalbumin-sensitized guinea-pigs after inhalation of antigen; format: in vivo; settings: -2 hrs, 1% OA, 20 inspirations
Procedure: For this purpose, guinea-pigs are actively sensitized against ovalbumin (OA) with 20 μg OA+20 mg Al(OH)3 in 0.5 ml, administered intraperitoneally (i.p.) and a booster dose of the same is administered 14 days later. One week after the booster dose, the animals are i.p. anaesthetized with urethane and connected to an apparatus (Mumed Physiological Recorder 800) for the determination of pulmonary function parameters. The animals are pretreated with mepyramine to antagonize the histamine, with indomethacin to inhibit the formation of prostaglandins, and with propanolol to eliminate β-adrenergic mechanisms. If an allergic reaction is induced after this treatment, the associated bronchospam is extensively attributable to the effect of leukotrienes.
Before the experiment the test substances were administered orally two hours before the challenge. After an equilibration period an asthmatic challenge attack is induced by the nebulization of a 1% ovalbumin solution over 20 inspirations.
The drop in dynamic compliance is used as a suitable and well reproducible parameter for characterizing the action of leukotrienes. Under control conditions, after pretreatment and ovalbumin challenge, guinea-pigs react with a slow drop in compliance of c. 30-40% over 15 minutes.

| Compound | IC50 [1] [nM] | also measured |
| --- | --- | --- |
| 1-(2,4-dimethylbenzyl)-5-methoxy-1H-indazole-3-ol [Example 18] | 977 | – |
| COc1ccc2c(c1)c(O)nn2Cc1ccc(OCc2ccccc2)cc1 [Example 1, 1-(4-benzyloxybenzyl)-5-methoxy-1H-indazole-3-ol] | 171 | inhibition at 1 µM ([2]; at 1.0 μmol/l): 36%; % inhibition (eosinophilia) ([3]; 1 mg/kg i.p.): 48.7%; EOS, B (eosinophils in the group treated with the substance, with challenge) ([3]; 1 mg/kg i.p.): 3.3 ± 1.6 mill./animal; % inhibition (eosinophilia) ([3]; 30 mg/kg p.o.): 36.0%; EOS, B (eosinophils in the group treated with the substance, with challenge) ([3]; 30 mg/kg p.o.): 3.7 ± 1.7 mill./animal |
| COc1ccc2c(c1)c(O)nn2Cc1ccc(Cl)cc1 [Example 2, 1-(4-chlorobenzyl)-5-methoxy-1H-indazole-3-ol] | 400 | – |
| COc1ccc2c(c1)c(O)nn2Cc1cccc(Cl)c1 [Example 3, 1-(3-chlorobenzyl)-5-methoxy-1H-indazole-3-ol] | 470 | – |
| COc1ccc2c(c1)c(O)nn2Cc1ccccc1Cl [Example 4, 1-(2-chlorobenzyl)-5-methoxy-1H-indazole-3-ol] | 710 | – |
| COc1ccc2c(c1)c(O)nn2Cc1ccc(Cl)c(Cl)c1 [Example 6, 1-(3,4-dichlorobenzyl)-5-methoxy-1H-indazole-3-ol] | 410 | inhibition at 3 µM ([2]; at 3.0 μmol/l): 40%; % drop in dyn. compliance ([4]; 5.0 mg/kg oral): 25 ± 9.9%; % inhibition ([4]; 5.0 mg/kg oral): 38%; % drop in dyn. compliance ([4]; 10.0 mg/kg oral): 7.0 ± 2.7%; % inhibition ([4]; 10.0 mg/kg oral): 83%; % inhibition (eosinophilia) ([3]; 1 mg/kg i.p.): 58.8%; EOS, B (eosinophils in the group treated with the substance, with challenge) ([3]; 1 mg/kg i.p.): 2.9 ± 1.2 mill./animal; % inhibition (eosinophilia) ([3]; 30 mg/kg p.o.): 40.4%; EOS, B (eosinophils in the group treated with the substance, with challenge) ([3]; 30 mg/kg p.o.): 3.5 ± 1.7 mill./animal |
| COc1ccc2c(c1)c(O)nn2Cc1ccc(Cl)cc1Cl [Example 7, 1-(2,4-dichlorobenzyl)-5-methoxy-1H-indazole-3-ol] | 100 | – |
| COc1ccc2c(c1)c(O)nn2Cc1c(Cl)cccc1Cl [Example 8, 1-(2,6-dichlorobenzl)-5-methoxy-1H-indazole3-ol] | 750 | – |
| COc1ccc2c(c1)c(O)nn2Cc1cccc(Cl)c1F [Example 10, 1-(3-chloro-2-flurobenzyl)-5-methoxy-1H-indazole-3-ol] | 829 | – |
| COc1ccc2c(c1)c(O)nn2Cc1ccc(Br)cc1 [Example 11, 1-(4-bromobenzyl)-5-methoxy-1H-indazole-3-ol] | 765 | – |
| COc1ccc2c(c1)c(O)nn2Cc1ccc(C(C)(C)C)cc1 [Example 19, 1-(4-tert-butylbenzyl)-5-methoxy-1H-indazole-3-ol] | 696 | – |
| COc1ccc2c(c1)c(O)nn2Cc1ccc(-c2ccccc2)cc1 [Example 22, 1-biphenyl-4-ylmethyl-5-methoxy-1H-indazole-3-ol] | 257 | – |
| COc1ccc2c(c1)c(O)nn2Cc1ccc2ccccc2c1 [Example 23, 5-methoxy-1-naphthalen-2-ylmethyl-1H-indazole-3-ol] | 265 | – |
| COc1ccc2c(c1)c(O)nn2Cc1cccs1 [Example 24, 5-methoxy-1-thiophen-2-ylmethyl-1H-indazole-3-ol] | 500 | – |
| COc1ccc2c(c1)c(O)nn2Cc1cc2c(cc1Cl)OCO2 [Example 31] | 874 | – |
| COc1ccc2c(c1)c(O)nn2CC=Cc1ccccc1 [Example 36, 5-methoxy-1-(3-phenylallyl)-1H-indazole-3-ol] | 299 | – |
| COc1ccc2c(c1)c(O)nn2CCOc1ccccc1 [Example 37, 5-methoxy-1-(3-phenoxyethyl)-1H-indazole-3-ol] | 745 | – |
| COc1ccc2c(c1)c(O)nn2CCCOc1ccccc1 [Example 38, 5-methoxy-1-(3-phenoxypropyl)-1H-indazole-3-ol] | 655 | – |
| COc1ccc2c(c1)c(O)nn2CCC(=O)c1ccccc1 [Example 39, 3-(3-hydroxy-5-methoxyindazole-1-yl)phenyl-propan-1-one] | 150 | – |
| COc1ccc2c(c1)c(O)nn2CCCC(=O)c1ccc(F)cc1 [Example 42, 1-(4-fluorophenyl)-4-(3-hydroxy-5-methoxy-1H-indazole-1-yl)butan-1-one] | 679 | – |
| COc1ccc2c(c1)c(O)nn2Cc1ccc(OCc2ccc3ccccc3n2)cc1 [Example 49] | 86 | – |
| Oc1ccc2c(c1)c(O)nn2Cc1ccc(Cl)c(Cl)c1 [Example 51, 1-(3,4-dichlorobenzyl)-1H-indazole-3,5-diol] | 748 | – |
| Oc1ccc2c(c1)c(O)nn2Cc1ccc(Cl)cc1Cl [Example 52, 1-(2,4-dichlorobenzyl)-1H-indazole-3,5-diol] | 258 | – |
| O=C(Nc1ccc(Cl)c(Cl)c1)Nc1ccc2c(c1)c(O)nn2Cc1ccc(Cl)cc1 [Example 61, 1-[1-(4-chlorobenzyl)-3-hydroxy-1H-indazole-5-yl]-3-(3,4-dichlorophenyl)urea] | 278 | – |
| COc1ccc2c(c1)c(O)nn2Cc1ccc(OCc2ccccc2)cc1 [[no label printed]] | – | % drop in dyn. compliance ([4]; 5.0 mg/kg oral): 32 ± 13%; % inhibition ([4]; 5.0 mg/kg oral): 20%; % drop in dyn. compliance ([4]; 10.0 mg/kg oral): 9.3 ± 11%; % inhibition ([4]; 10.0 mg/kg oral): 77% |

Reference: patent US5776932A, “1,3,5-tribsubstituted indazole derivatives, processes for preparing, and for pharmacological treatment therewith” (Arzneimittelwerk Dresden G.m.b.H., priority 1996, dated 1998)
